Measurements published in patent US9045393B2, “Derivatives of 3.5-seco-4-norcholestane and use thereof” (TROPHOS, priority 2004, dated 2015).

Tests used:
[1] = test system: rat motoneurons; experiment: in vitro model of trophic deprivation of rat motoneurons (survival, calcein fluorescence); assay type: cell-based; conditions: 3 days in basal medium, compared with medium supplemented with neurotrophic factors, ratio greater than 0 = positive effect
Source text: Useful reference may be made to the WO 0142784 Patent Application of the applicant on the cultivation of spinal cord motoneurons.
The spinal cord of rat E14 embryos is dissected and the ventral portion is dissociated by trituration after trypsination. The motoneurons are separated from the other spinal cells by a known method (Camu et al., 1993, Purification of spinal motoneurons from chicken and rat embryos by immunopanning. in “Immunoselection Strategies for Neural cell culture”, Neuroprotocols: A companion to Methods in Neurosciences 2, 191-199; Henderson et al., 1993. Neutrophins promote motor neuron survival and are present in embryonic limb bud. Nature 363 (6426): 266-70). The cells are centrifuged on a density gradient. Motoneurons are enriched in the fraction of large cells (the less dense cells). The cells of this fraction are incubated with an anti-p75 antibody, a surface antigen present on motoneurons. Secondary antibodies coupled with magnetic beads are added and the mixture of cells is passed through a column in a magnet (Arce et al., 1999). Only the motoneurons are retained: their purity is of the order of 90%.
The motoneurons are sown with low density in culture wells on a substrate of polyornithine-laminin in a neurobasal medium supplemented according to Raoul et al., 1999, Programmed cell death of embryonic motoneurons triggered through the Fas death receptor. J. Cell. Biol. 147(5): 1049-62. Negative controls (absence of trophic factors) and positive controls (in the presence of BDNF (Brain-Derived Neurotrophic Factor) at 1 ng/mL, GDNF (Glial-Derived Neurotrophic Factor) at 1 ng/mL, and CNTF (Ciliary Neurotrophic Factor) at 10 ng/mL, marketed by the US company PEPROTECH, Inc. and the Sigma-Aldrich company), are included in each series.
The compounds to be tested are added 60 minutes after sowing and the cultures are maintained at 37° C. under 5% CO2 for 3 days.
The motoneurons have a spontaneous tendency of dying in the absence of neurotrophic factors (Pettmann and Henderson, 1998, Neuronal cell death. Neuron 20(4): 633-47). After 3 days, survival is evaluated by measuring fluorescence after incubating the cells in the presence of calcein which becomes fluorescent in living cells.
After 3 days in culture at 37° C., under 5% CO2 and in saturating humidity, up to 50% of the initially sown motoneurons survive in the medium supplemented with neurotrophic factors, while less than 15% of the motoneurons survive in a basal medium alone.
The activity of the compounds to be tested was evaluated by their capability of preventing death of motoneurons when they are added to the neurobasal medium as compared with survival of motoneurons in a medium supplemented with neurotrophic factors.
This survival rate is expressed by a number, the ratio. If the ratio is greater than 0, the effect of the compounds is positive on the survival of the motoneurons.

[2] = test system: motoneurons of the facial nucleus; experiment: axotomy of the facial nerve in newborn rats, count of motoneurons of the facial nucleus; assay type: in vivo, rat; conditions: axotomized newborn rats, treated orally, seven days after section
[3] = Toxicological study in mice; assay type: in vivo; conditions: intra-peritoneal route, 30 mg/kg/day, daily administration up to 14 days

| Molecule | Ratio (survival rate of the motoneurons) ([1]; concentration 3 μM) | also measured |
| --- | --- | --- |
| 3,5-seco-4-nor-cholestan-5-one oxime-3-methyl alcohol [Compound 4] | 0.5 | increase of survival of the motoneurons of the facial nucleus ([2]; dose of 30 mg/kg): up to 30% |
| 3,5-seco-4-nor-cholestan-5-one-3-methyl ketone [Compound 13] | 0.7 | – |
| CNC(=O)CCC1(C)C(=NO)CCC2C1CCC1(C)C(C(C)CCCC(C)C)CCC21 (stereo not shown) [Compound 1, 3,5-seco-4-nor-cholestan-5-one oxime-3-methyl-amide] | 0.4 | – |
| CC(C)CCCC(C)C1CCC2C3CCC(=O)C(C)(CCC(C)(C)O)C3CCC12C (stereo not shown) [Compound 2, 3,5-seco-4-nor-cholestan-5-one-3-dimethyl alcohol] | 0.5 | – |
| CC(C)CCCC(C)C1CCC2C3CCC(=NO)C(C)(CCC(C)(C)O)C3CCC12C (stereo not shown) [Compound 3, 3,5-seco-4-nor-cholestan-5-one oxime-3-dimethyl alcohol] | 0.7 | increase of survival of the motoneurons of the facial nucleus ([2]; dose of 10 mg/kg): up to 25%; toxicity [3]: did not show any significant toxicity |
| CNCCCC1(C)C(=NO)CCC2C1CCC1(C)C(C(C)CCCC(C)C)CCC21 (stereo not shown) [Compound 5, 3,5-seco-4-nor-cholestan-5-one oxime-3-methyl-amine] | 0.3 | – |
| CON=C1CC[C@H]2[C@@H]3CC[C@H]([C@H](C)CCCC(C)C)[C@@]3(C)CC[C@@H]2[C@@]1(C)CCCO [Compound 6, 3,5-seco-4-nor-cholestan-5-one methyloxime-3-ol] | 0.4 | – |
| CC(C)CCCC(C)C1CCC2C3CCC(=NOCC(=O)O)C(C)(CCCO)C3CCC12C (stereo not shown) [Compound 7, 3,5-seco-4-nor-cholestan-5-one carboxymethyl-oxime-3-ol] | 0.4 | – |
| CC(C)CCCC(C)C1CCC2C3CCC(=NO)C(C)(CCC(=O)O)C3CCC12C (stereo not shown) [Compound 8, 3,5-seco-4-nor-cholestan-5-one oxime-3-oic acid] | 0.4 | – |
| CC(C)CCCC(C)C1CCC2C3CCC(O)C(C)(CCCO)C3CCC12C (stereo not shown) [Compound 9, 3,5-seco-4-nor-cholestane-3,5-diol] | 0.4 | – |
| CC(C)CCCC(C)C1CCC2C3CCC(=O)C(C)(CCCO)C3CCC12C (stereo not shown) [Compound 10, 3,5-seco-4-nor-cholestan-5-one-3-ol] | 0.6 | – |
| CC(C)CCC[C@@H](C)[C@H]1CC[C@H]2[C@@H]3CC/C(=N\O)[C@](C)(CCCO)[C@H]3CC[C@]12C [Compound 11, 3,5-seco-4-nor-cholestan-5-one oxime-3-ol] | 0.8 | increase of survival of the motoneurons of the facial nucleus ([2]; dose between 3 and 30 mg/kg, as compared with non-sectioned nerve): up to 40%; toxicity [3]: did not show any significant toxicity |
| CC(C)CCCC(C)C1CCC2C3CCC(=NO)C(C)(CCC=NO)C3CCC12C (stereo not shown) [Compound 12, 3,5-seco-4-nor-cholestan-5-one oxime-3-one oxime] | 0.7 | – |
| CC(C)CCCC(C)C1CCC2C3CCC(=O)C(C)(CCC(=O)O)C3CCC12C (stereo not shown) [Compound 14, 3,5-seco-4-nor-cholestan-5-one-3-oic acid] | – | Ratio (survival rate of the motoneurons) ([1]; concentration 10 μM): 0.4 |
